# Reference: PubChem BioAssay (NCI)
#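 Following 48 hours of exposure in 96-well plates, responses at five concentrations were used to interpolate endpoints linearly. The concentration for 50% growth inhibition is given as GI50. TGI: total growth inhibition.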
# Legend:
# Experiment in all cases: NCI anticancer screen, dose series, 48 h
# MCF7 breast = tested on: MCF7 breast
# OVCAR-8 ovarian = tested on: OVCAR-8 ovarian
# HCT-15 colon = tested on: HCT-15 colon
# SK-OV-3 ovarian = tested on: SK-OV-3 ovarian
# U251 CNS = tested on: U251 CNS
# CCRF-CEM leukemia = tested on: CCRF-CEM leukemia
# HL-60(TB) leukemia = tested on: HL-60(TB) leukemia
# NCI-H23 lung = tested on: NCI-H23 lung
# HCC-2998 colon = tested on: HCC-2998 colon
# BT-549 breast = tested on: BT-549 breast
# MDA-MB-435 = tested on: MDA-MB-435
# NCI-H522 lung = tested on: NCI-H522 lung
# SK-MEL-2 melanoma = tested on: SK-MEL-2 melanoma
# UACC-62 melanoma = tested on: UACC-62 melanoma
# LOX IMVI melanoma = tested on: LOX IMVI melanoma
# T-47D breast = tested on: T-47D breast
# RXF 393 renal = tested on: RXF 393 renal
# CAKI-1 renal = tested on: CAKI-1 renal
# DU-145 prostate = tested on: DU-145 prostate
# HCT-116 colon = tested on: HCT-116 colon
# ACHN renal = tested on: ACHN renal
# SN12C renal = tested on: SN12C renal
# TK-10 renal = tested on: TK-10 renal
# SK-MEL-5 melanoma = tested on: SK-MEL-5 melanoma
# OVCAR-3 ovarian = tested on: OVCAR-3 ovarian
# UACC-257 melanoma = tested on: UACC-257 melanoma
# HOP-62 NSCLC = tested on: HOP-62 NSCLC
# SW-620 colon = tested on: SW-620 colon
# K-562 leukemia = tested on: K-562 leukemia
# IGROV1 ovarian = tested on: IGROV1 ovarian
# SNB-19 CNS = tested on: SNB-19 CNS
# EKVX NSCLC = tested on: EKVX NSCLC
# RPMI-8226 leukemia = tested on: RPMI-8226 leukemia
# 786-0 renal = tested on: 786-0 renal
# MOLT-4 leukemia = tested on: MOLT-4 leukemia
# KM12 colon = tested on: KM12 colon
# PC-3 prostate = tested on: PC-3 prostate
# M14 melanoma = tested on: M14 melanoma
# A549 NSCLC = tested on: A549 NSCLC
# MALME-3M melanoma = tested on: MALME-3M melanoma
# HS 578T breast = tested on: HS 578T breast
# HT29 colon = tested on: HT29 colon
# OVCAR-4 ovarian = tested on: OVCAR-4 ovarian
# SF-268 CNS = tested on: SF-268 CNS
# SF-539 CNS = tested on: SF-539 CNS
# MDA-MB-231 breast = tested on: MDA-MB-231 breast
# COLO 205 colon = tested on: COLO 205 colon
# SF-295 CNS = tested on: SF-295 CNS
# A498 renal = tested on: A498 renal
# SK-MEL-28 melanoma = tested on: SK-MEL-28 melanoma
# UO-31 renal = tested on: UO-31 renal
# OVCAR-5 ovarian = tested on: OVCAR-5 ovarian
# SNB-75 CNS = tested on: SNB-75 CNS
# HOP-92 NSCLC = tested on: HOP-92 NSCLC
# NCI-H226 lung = tested on: NCI-H226 lung
# NCI-H460 lung = tested on: NCI-H460 lung
# NCI/ADR-RES ovarian = tested on: NCI/ADR-RES ovarian
# SR leukemia = tested on: SR leukemia
structure (smiles),measurement,setting,value
CCN(CC)c1ccc(/C=N/NC(=O)c2ccc(NS(C)(=O)=O)cc2)cc1,GI50,MCF7 breast,0.598 µM
same,TGI,MCF7 breast,> 100 µM
same,GI50,OVCAR-8 ovarian,0.445 µM
same,TGI,OVCAR-8 ovarian,> 100 µM
same,GI50,HCT-15 colon,0.431 µM
same,TGI,HCT-15 colon,49.1 µM
same,GI50,SK-OV-3 ovarian,1.05 µM
same,TGI,SK-OV-3 ovarian,27.7 µM
same,GI50,U251 CNS,0.236 µM
same,TGI,U251 CNS,> 44.5 µM
same,GI50,CCRF-CEM leukemia,0.301 µM
same,TGI,CCRF-CEM leukemia,> 100 µM
same,GI50,HL-60(TB) leukemia,0.294 µM
same,GI50,NCI-H23 lung,1.89 µM
same,TGI,NCI-H23 lung,> 100 µM
same,GI50,HCC-2998 colon,0.704 µM
same,TGI,HCC-2998 colon,> 76.8 µM
same,GI50,BT-549 breast,0.847 µM
same,TGI,BT-549 breast,11.2 µM
same,GI50,MDA-MB-435,1.56 µM
same,TGI,MDA-MB-435,> 100 µM
same,GI50,NCI-H522 lung,0.418 µM
same,TGI,NCI-H522 lung,15.1 µM
same,GI50,SK-MEL-2 melanoma,4.33 µM
same,TGI,SK-MEL-2 melanoma,24.6 µM
same,GI50,UACC-62 melanoma,0.526 µM
same,TGI,UACC-62 melanoma,10.2 µM
same,GI50,LOX IMVI melanoma,0.301 µM
same,TGI,LOX IMVI melanoma,10.9 µM
same,GI50,T-47D breast,1.22 µM
same,TGI,T-47D breast,> 72.1 µM
same,GI50,RXF 393 renal,1.18 µM
same,TGI,RXF 393 renal,4.78 µM
same,GI50,CAKI-1 renal,0.554 µM
same,TGI,CAKI-1 renal,> 47 µM
same,GI50,DU-145 prostate,0.933 µM
same,TGI,DU-145 prostate,> 100 µM
same,GI50,HCT-116 colon,0.352 µM
same,TGI,HCT-116 colon,> 87.7 µM
same,GI50,ACHN renal,0.656 µM
same,TGI,ACHN renal,57.1 µM
same,GI50,SN12C renal,0.978 µM
same,TGI,SN12C renal,> 100 µM
same,GI50,TK-10 renal,1.74 µM
same,TGI,TK-10 renal,> 92.6 µM
same,GI50,SK-MEL-5 melanoma,1.67 µM
same,TGI,SK-MEL-5 melanoma,> 46.5 µM
same,GI50,OVCAR-3 ovarian,0.231 µM
same,TGI,OVCAR-3 ovarian,20.1 µM
same,GI50,UACC-257 melanoma,1.1 µM
same,TGI,UACC-257 melanoma,21.2 µM
same,GI50,HOP-62 NSCLC,0.415 µM
same,TGI,HOP-62 NSCLC,17.8 µM
same,GI50,SW-620 colon,0.693 µM
same,TGI,SW-620 colon,> 100 µM
same,GI50,K-562 leukemia,0.595 µM
same,TGI,K-562 leukemia,> 100 µM
same,GI50,IGROV1 ovarian,0.716 µM
same,TGI,IGROV1 ovarian,> 100 µM
same,GI50,SNB-19 CNS,1.6 µM
same,TGI,SNB-19 CNS,> 79.6 µM
same,GI50,EKVX NSCLC,1.01 µM
same,TGI,EKVX NSCLC,> 77 µM
same,GI50,RPMI-8226 leukemia,4.28 µM
same,TGI,RPMI-8226 leukemia,> 60.7 µM
same,GI50,786-0 renal,0.714 µM
same,TGI,786-0 renal,6.48 µM
same,GI50,MOLT-4 leukemia,0.433 µM
same,TGI,MOLT-4 leukemia,> 41.3 µM
same,GI50,KM12 colon,0.907 µM
same,TGI,KM12 colon,> 66.8 µM
same,GI50,PC-3 prostate,0.561 µM
same,TGI,PC-3 prostate,> 100 µM
same,GI50,M14 melanoma,0.463 µM
same,TGI,M14 melanoma,3.42 µM
same,GI50,A549 NSCLC,2.43 µM
same,TGI,A549 NSCLC,> 100 µM
same,GI50,MALME-3M melanoma,1.17 µM
same,TGI,MALME-3M melanoma,15.3 µM
same,GI50,HS 578T breast,2.74 µM
same,TGI,HS 578T breast,58.9 µM
same,GI50,HT29 colon,0.556 µM
same,TGI,HT29 colon,18.7 µM
same,GI50,OVCAR-4 ovarian,0.409 µM
same,TGI,OVCAR-4 ovarian,> 100 µM
same,GI50,SF-268 CNS,0.383 µM
same,TGI,SF-268 CNS,> 49 µM
same,GI50,SF-539 CNS,0.571 µM
same,TGI,SF-539 CNS,11.3 µM
same,GI50,MDA-MB-231 breast,0.546 µM
same,TGI,MDA-MB-231 breast,> 72.1 µM
same,GI50,COLO 205 colon,0.643 µM
same,TGI,COLO 205 colon,25.9 µM
same,GI50,SF-295 CNS,0.828 µM
same,TGI,SF-295 CNS,20.7 µM
same,GI50,A498 renal,6.09 µM
same,TGI,A498 renal,41.3 µM
same,GI50,SK-MEL-28 melanoma,0.498 µM
same,TGI,SK-MEL-28 melanoma,> 78.2 µM
same,GI50,UO-31 renal,0.58 µM
same,TGI,UO-31 renal,24.4 µM
same,GI50,OVCAR-5 ovarian,2.32 µM
same,TGI,OVCAR-5 ovarian,> 100 µM
same,GI50,SNB-75 CNS,0.434 µM
same,TGI,SNB-75 CNS,16.9 µM
same,GI50,HOP-92 NSCLC,0.457 µM
same,TGI,HOP-92 NSCLC,40.3 µM
same,GI50,NCI-H226 lung,1.21 µM
same,TGI,NCI-H226 lung,38 µM
same,GI50,NCI-H460 lung,0.564 µM
same,TGI,NCI-H460 lung,11.8 µM
same,GI50,NCI/ADR-RES ovarian,3.86 µM
same,TGI,NCI/ADR-RES ovarian,> 100 µM
same,GI50,SR leukemia,0.17 µM
same,TGI,SR leukemia,> 100 µM
